Test results published in PubChem BioAssay (NCI).
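Growth conditions: 96-well plates. Treatment: test compound, 48 hours, 5 concentrations. Analysis: linear interpolation between bracketing concentrations; unreached endpoints set to highest concentration. The concentration for 50% growth inhibition is given as GI50. TGI: total growth inhibition.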

Legend:
Assay in all cases: DTP human tumour cell line panel, 48 h
[1] = system: RXF 393 renal
[2] = system: SNB-75 CNS
[3] = system: TK-10 renal
[4] = system: OVCAR-4 ovarian
[5] = system: SK-MEL-5 melanoma
[6] = system: RPMI-8226 leukemia
[7] = system: UO-31 renal
[8] = system: KM12 colon
[9] = system: NCI-H23 lung
[10] = system: HCC-2998 colon

| Compound | TGI [1] [µM] | TGI [2] [µM] | TGI [3] [µM] | TGI [4] [µM] | TGI [5] [µM] | TGI [6] [µM] | TGI [7] [µM] | TGI [8] [µM] | GI50 [1] [µM] | GI50 [9] [µM] | TGI [9] [µM] | GI50 [2] [µM] | GI50 [3] [µM] | GI50 [4] [µM] | GI50 [5] [µM] | GI50 [6] [µM] | GI50 [7] [µM] | GI50 [8] [µM] | GI50 [10] [µM] | TGI [10] [µM] |
| --- | --- | --- | --- | --- | --- | --- | --- | --- | --- | --- | --- | --- | --- | --- | --- | --- | --- | --- | --- | --- |
| COc1cc(CCc2ccc(OCCN(C)C)cc2)cc(OC)c1OC | > 100 | > 100 | > 100 | > 100 | 64.6 | > 100 | > 100 | > 100 |  |  |  |  |  |  |  |  |  |  |  |  |
| Cc1c2c(nn1-c1ccc(S(=O)(=O)NC(=S)Nc3ccccc3)cc1)-c1ccccc1CC2 | > 50 | > 50 | 46.9 | > 50 | > 50 | 42.4 | > 50 | > 50 | > 50 | 46.8 | > 50 | > 50 | 10 | > 50 | > 50 | 15.5 | > 50 | 25.6 |  |  |
| Cc1ccc(-[n+]2c3cc(N)c(C)cc3nc3cc(C)c(Nc4ccccc4)cc32)cc1 |  | 0.419 | 1.04 | 1.59 | 0.289 |  | 1.03 | 0.3 |  |  |  | 0.154 | 0.148 | 0.333 | 0.147 |  | 0.27 | 0.0767 | 0.566 | 1.82 |
| Cc1cc2c(c(C#N)c1C)NC(=O)CCC2=O | > 100 | > 100 |  | > 100 |  | > 100 | 91.4 | > 100 |  |  | > 100 |  |  |  |  |  |  |  |  | > 100 |
| CC1=C(C(=O)Nc2c(C)cccc2C)C(c2ccc3c(c2)OCO3)C(C(=O)Nc2c(C)cccc2C)=C(C)N1 | 33.9 | 63.1 | 62.1 | 77.3 |  |  | 30.6 | 29.1 |  |  | 29.8 |  |  |  |  |  |  |  |  | 32.3 |
| O=c1c2ccccc2[nH]c(=S)n1-c1ccc(Br)cc1 | > 100 | > 100 | > 100 | > 100 |  | > 100 | > 100 | > 100 |  |  | > 100 |  |  |  |  |  |  |  |  | > 100 |
| CC1OC(OCC2OC(Oc3c(-c4ccc(O)cc4)oc4cc(O)cc(O)c4c3=O)C(OC3OCC(O)(CO)C3O)C(O)C2O)C(O)C(O)C1O (centres undefined) |  | > 100 | > 100 | > 100 | > 100 | > 100 | > 100 | > 100 |  |  | > 100 |  |  |  |  |  |  |  |  | > 100 |
| Cc1cnc2c(C)ccc([N+](=O)[O-])c2c1NCCCN(C)C |  |  | > 100 | > 100 |  | > 100 | > 100 | > 100 |  |  | > 100 |  |  |  |  |  |  |  |  | > 100 |
| CCOC(=O)c1c2c(n3ccc(NC(=O)CCN4CCCC4)cc13)C(=O)c1ncccc1C2=O | 3.36 | 2.41 | 2.61 |  | 35 | 4.65 | 2.81 | 3.32 | 1.41 |  |  | 1.05 | 1.26 |  | 15.1 | 1.56 | 0.724 | 1.52 |  |  |
| COc1ccc(N=C2CSc3nnc(-c4cc(F)c(Cl)cc4Cl)n3N2)cc1 |  | 1.58 | 4.06 | 7.04 | 11.1 | 11 |  | 3.45 |  | 2.24 | 15.9 | 0.355 | 1.4 | 1.82 | 1.28 | 1.41 |  | 0.469 |  |  |
| Cn1c(=O)nc2n(-c3ccc(Cl)cc3)c3ccc(Cl)cc3nc-2c1=O | 7.93 | 10.4 | 53.6 |  | 2.37 |  | 39.8 | 32 |  |  | 8.65 |  |  |  |  |  |  |  |  | 40.6 |
| Nc1ccn(CCOC(=O)c2ccccc2)c(=O)n1 | > 100 | > 100 | > 100 | > 100 | > 100 | > 100 | > 100 | > 100 |  |  |  |  |  |  |  |  |  |  |  |  |
| COc1cc([C@H]2c3cc4c(cc3O[C@@]3(O)COC(=O)[C@@H]23)OCO4)cc(OC)c1OC |  | > 100 | > 100 | > 100 | > 100 | > 100 | > 100 | > 100 |  |  |  |  |  |  |  |  |  |  |  | > 100 |
| O=C(Oc1ccc(Cl)cc1Cl)c1ccccc1Nc1ccnc(C(F)(F)F)c1 |  |  | 23.9 |  | 10.5 | 6.29 | > 100 | 21.1 |  | 3.51 | 13.6 |  | 4.05 |  | 2.85 | 2.39 | 18.1 | 3.69 | 3.25 | 5.49 |
| CC[C@H](C)N(CCN)C(=O)c1cc2ccccc2c(-c2ccccc2Cl)n1 | 19.7 |  | 25.5 | 30.1 |  | 32.4 | 25.3 | 29.6 |  |  | 28.6 |  |  |  |  |  |  |  |  | 9.06 |
| COc1ccc2nc(N/N=C(\C)c3ccccn3)cc(C)c2c1 |  | 7.49 | 0.991 | 2.57 | 1.12 | 1.36 | 1.08 | 1.6 |  | 0.44 | 4.46 | 1.82 | 0.207 | 0.156 | 0.244 | 0.369 | 0.161 | 0.321 | 0.348 | 2.06 |
| CC1=C(C(=O)Nc2ccccc2C)C(c2ccccc2)C(C(=O)Nc2ccccc2C)=C(C)N1 | 71.6 | > 100 | > 100 | > 100 | 90 |  | > 100 | > 100 |  |  | > 100 |  |  |  |  |  |  |  |  | > 100 |
| O=C(CNc1nncs1)NO | > 100 | > 100 | > 100 | > 100 |  | > 100 | > 100 | > 100 |  |  | > 100 |  |  |  |  |  |  |  |  | > 100 |
| Cc1ncc(CN=Cc2ccc(Cl)cc2)c(N)n1 | > 100 | > 100 | > 100 | > 100 | > 100 | > 100 | > 100 | > 100 |  |  | > 100 |  |  |  |  |  |  |  |  |  |
| CC(=O)n1c(COS(C)(=O)=O)nc2ccccc21 | > 100 | > 100 | > 100 | > 100 | > 100 |  | > 100 | > 100 |  |  | > 100 |  |  |  |  |  |  |  |  | > 100 |
